Activity calls are given as the source filed them. The calls are words filed in the database; no cut-off is given here.

The target of data set [1] is T1, m7GpppX diphosphatase (Mus musculus, UniProt Q9DAR7).
T1 sequence (Q9DAR7 whole entry): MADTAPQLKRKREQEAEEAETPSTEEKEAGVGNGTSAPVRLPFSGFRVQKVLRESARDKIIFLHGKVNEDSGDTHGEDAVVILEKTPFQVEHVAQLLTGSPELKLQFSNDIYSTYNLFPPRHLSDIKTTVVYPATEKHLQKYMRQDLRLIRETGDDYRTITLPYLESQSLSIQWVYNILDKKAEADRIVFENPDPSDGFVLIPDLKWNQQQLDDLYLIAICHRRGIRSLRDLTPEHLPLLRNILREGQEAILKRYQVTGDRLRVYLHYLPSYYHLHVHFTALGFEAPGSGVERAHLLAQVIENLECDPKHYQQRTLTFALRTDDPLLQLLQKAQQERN
Put plainly: Inhibition of DcpS in human SMN2 promoter driven mouse NSC-34 cells assessed as increase in SMN2 mRNA expression after 18 hrs by RT-PCR analysis.

Data set [2] has as its target T1, m7GpppX diphosphatase. Put plainly: Inhibition of DcpS in human SMN2 promoter driven mouse NSC-34 cell lysate assessed as increase in SMN2 expression after 18 hrs by beta-lactamase reporter gene assay.
Data set [3] concerns the target T2, m7GpppX diphosphatase (Homo sapiens) (UniProt Q96C86).
T2 sequence (whole entry): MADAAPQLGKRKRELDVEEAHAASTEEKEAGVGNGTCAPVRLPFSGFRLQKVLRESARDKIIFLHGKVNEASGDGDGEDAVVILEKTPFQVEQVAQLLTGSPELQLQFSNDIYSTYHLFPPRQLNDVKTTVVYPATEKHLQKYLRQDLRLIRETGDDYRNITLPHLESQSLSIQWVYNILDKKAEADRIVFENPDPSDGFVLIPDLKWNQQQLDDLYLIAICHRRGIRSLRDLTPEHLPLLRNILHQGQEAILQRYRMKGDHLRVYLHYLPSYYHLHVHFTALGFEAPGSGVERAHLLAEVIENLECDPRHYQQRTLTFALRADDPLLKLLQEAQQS
Put plainly: Binding affinity to recombinant human N-terminal GST-tagged DcpS expressed in baculovirus-infected Sf9 insect cells at 100 nM after 90 mins in presence of [125I]-streptavidin by microarray assay. The note with it: tested as the 125I-labelled form.

The target in data set [4] is T3, m7GpppX diphosphatase (Homo sapiens, UniProt Q96C86).
T3 sequence (Q96C86 whole entry): T2 sequence (whole entry)
Put plainly: Inhibition of recombinant flag-tagged DcpS (unknown origin) decapping activity assessed as reduction in hydrolysis of m7GpppG to m7G using unlabeled cap structure as substrate after 30 secs by PEI cellulose thin-layer chromatographic assay.

The target in data set [5] is T2, m7GpppX diphosphatase (Homo sapiens). Put plainly: Inhibition of recombinant flag-tagged DcpS (unknown origin) decapping activity assessed as hydrolysis of m7GpppG to m7G at 8 nM using unlabeled cap structure as substrate after 30 secs by PEI cellulose thin-layer chromatographic assay (reference value: 62%). Set-up: scale not given: the % may be the effect or the level left.

Data set [6] has the same target. The data set can be described thus: Inhibition of recombinant flag-tagged DcpS (unknown origin) decapping activity assessed as hydrolysis of m7GpppG to m7G at 200 nM using unlabeled cap structure as substrate after 30 secs by PEI cellulose thin-layer chromatographic assay (reference value: 62%). Set-up: scale not given: the % may be the effect or the level left.

The target is the same in data set [7]. Put plainly: Inhibition of recombinant flag-tagged DcpS (unknown origin) decapping activity assessed as hydrolysis of m7GpppG to m7G at 1.6 nM using unlabeled cap structure as substrate after 30 secs by PEI cellulose thin-layer chromatographic assay (reference value: 62%). Set-up: scale not given: the % may be the effect or the level left.
For data set [8] the target is unchanged. Put plainly: Inhibition of recombinant flag-tagged DcpS (unknown origin) decapping activity assessed as hydrolysis of m7GpppG to m7G at 40 nM using unlabeled cap structure as substrate after 30 secs by PEI cellulose thin-layer chromatographic assay (reference value: 62%). Set-up: scale not given: the % may be the effect or the level left.
For data set [9], the system named is Mus musculus. The data set can be described thus: Increase in SMN protein levels in spinal cord extracts isolated from SMNdelta7 SMA mouse model at 3 mg/kg/day administered orally beginning at PND04 for 5 days by immunoblot analysis relative to SMNdelta7 carrier mouse. It counts as functional.
The subject of data set [10] is Brain. The data set can be described thus: Drug uptake in brain of SMNdelta7 carrier mouse […] at 0.1 to 30 mg/kg/day administered orally beginning at PND04 for 5 days. The note with it: in vivo, po, 120 h. It counts as ADME, organism-based.
The test system of data set [11] is Mus musculus. Put plainly: Increase in life span of SMNdelta7 SMA mouse model at 3 mg/kg/day administered orally beginning at PND04, continued for duration of their lives by Kaplan-Meier plot method relative to untreated control. It counts as functional.
For data set [12], the system named is Mus musculus. Put plainly: Increase in Smn promoter activity in forebrain extracts isolated from Smn knockout mouse containing LacZ:NeoR cassette inserted into mouse Smn exon 2A assessed as optimal effective dose administered orally beginning at PND04 for 5 days by beta-galactosidase light chemiluminescent reporter gene assay. It counts as functional.
The subject of data set [13] is Mus musculus. The data set can be described thus: Increase in life span of timed-pregnant SMNdelta7 carrier mouse prenatal dams at 3 mg/kg/day administered orally beginning at embryonic day 11.5 continued through birth and once the pups were born. The data set is classed as functional.
In data set [14] the test system is Mus musculus. The data set can be described thus: Increase in SMN protein levels in spinal cord extracts isolated from SMNdelta7 SMA mouse model at 3 mg/kg/day administered orally beginning at PND04 for 5 days by immunoblot analysis. It counts as functional. (In general: Immunoblotting shows a protein as a band on a membrane.)
Data set [15] relates to Mus musculus. Put plainly: Toxicity in SMNdelta7 carrier mouse assessed as adverse events at 0.1 to 30 mg/kg/day administered orally beginning at PND04 for 5 days. Conditions: in vivo, po, 120 h. It counts as organism-based.
The test system of data set [16] is Mus musculus. The data set can be described thus: Induction in delay of onset of body mass loss in timed-pregnant SMNdelta7 carrier mouse prenatal dams at 3 mg/kg/day administered orally only during prenatal period. It counts as functional.
In data set [17] the test system is Mus musculus. Put plainly: Induction in delay of onset of body mass loss in SMNdelta7 SMA mouse model at 3 mg/kg/day administered orally beginning at PND04, continued for duration of their lives by Kaplan-Meier plot method (reference value: 11.1 +/- 0.3 day). The data set is classed as functional.
The test system of data set [18] is Brain. Put plainly: Drug level in fetal brain extracts isolated from timed-pregnant SMNdelta7 carrier mouse prenatal dams administered orally beginning at embryonic day 11.5 for 5 days by LC-MS-MS analysis. The note with it: in vivo, po, 120 h. It counts as ADME, tissue-based.
The test system of data set [19] is Mus musculus. Put plainly: Effect on life span of SMNdelta7 SMA mouse model assessed as survival at 3 mg/kg/day administered orally on onset of motor neuron loss at PND09, continued for duration of their lives by Kaplan-Meier plot method (reference value: 14 +/- 0.4 day). It counts as functional.
Data set [20] relates to Mus musculus. The data set can be described thus: Increase in Smn promoter activity in spinal cord extracts isolated from Smn knockout mouse containing LacZ:NeoR cassette inserted into mouse Smn exon 2A assessed as optimal effective dose administered orally beginning at PND04 for 5 days by beta-galactosidase light chemiluminescent reporter gene assay. It counts as functional. For orientation: In a reporter assay the amount or activity of a reporter protein is the signal.

Data set [21] deals with Mus musculus. Put plainly: Induction in delay of onset of body mass loss in timed-pregnant SMNdelta7 carrier mouse prenatal dams at 3 mg/kg/day administered orally beginning at embryonic day 11.5 continued through birth and once the pups were born. The data set is classed as functional.
Data set [22] concerns Mus musculus. The data set can be described thus: Increase in life span of timed-pregnant SMNdelta7 carrier mouse prenatal dams at 3 mg/kg/day administered orally beginning at embryonic day 11.5 continued after birth (reference value: 13.3 +/- 0.6 day). It counts as functional.

For the compound `Nc1nc(N)c2c(OCC3CCN(CC(F)(F)F)CC3)cccc2n1`, the EC50 – broadly, the midpoint of the concentration-response curve – on m7GpppX diphosphatase [1] amounted to 223 nM.
For the compound `Nc1nc(N)c2c(OCC3CCN(C(=O)c4cccc(I)c4)CC3)cccc2n1`, the EC50 on m7GpppX diphosphatase [2] amounted to 36 nM. Moreover, the outcome in [3] was Active.
As for `C[n+]1cn([C@@H]2O[C@H](COP(=O)(O)OP(=O)([O-])OP(=O)(O)OC[C@H]3O[C@@H](n4cnc5c(=O)[nH]c(N)nc54)[C@H](O)[C@@H]3O)[C@@H](O)[C@H]2O)c2nc(N)[nH]c(=O)c21`, the 50% inhibitory concentration (IC50) (commonly the concentration at which inhibition is half-maximal) at m7GpppX diphosphatase [4] worked out at 30 nM.
Regarding `Cn1ccnc1CN1CCC(COc2cccc3nc(N)nc(N)c23)CC1`, the 50% effective concentration (EC50) on m7GpppX diphosphatase [1] amounted to 108 nM.
On the same count and under the same terms, under `CC(=O)Nc1nc(CN2CCC(COc3cccc4nc(N)nc(N)c34)CC2)cs1` stands 2540 nM; under `Nc1nc(N)c2c(OCC3CCN(CC4CCNCC4)CC3)cccc2n1`, 921 nM.
On to `C[n+]1cn([C@@H]2O[C@H](COP(=O)(O)OP(=O)([O-])OP(=O)(O)OC[C@H]3O[C@@H](n4cnc5c(=O)[nH]c(N)nc54)[C@H](O)[C@@H]3O)[C@@H](O)[C@H]2O)c2nc(N)nc(O)c21`, for which the Activity was determined as 46% in data set [5], 7% in data set [6], 55% in data set [7] and 24% in data set [8].
Turning to `Nc1nc(N)c2c(OCC3CCN(c4ccccc4Cl)CC3)cccc2n1`, on m7GpppX diphosphatase [1], the 50% effective concentration (EC50) amounted to 795 nM.
For the compound `Nc1nc(N)c2c(OCC3CCN(Cc4ccccc4F)CC3)cccc2n1`, the Activity is reported as 25% in the data set on Mus musculus [9]; 21% with Mus musculus [11]; 3 mg/kg/day in the data set on Mus musculus [12]; 30% with Mus musculus [13]; 70% in the data set on Mus musculus [14]; “Non-Toxic” in the data set with Mus musculus [15]. The Activity is 10% with Mus musculus [16]; 12 days in the data set on Mus musculus [17]; 3 mg/kg/day in the data set with Mus musculus [20]; 15% in the data set with Mus musculus [21]; 14.1 days in the data set with Mus musculus [22]. The Drug uptake result in the data set with Brain [10] and in the data set on Brain [18] was “Dose-dependent effect” throughout. Further, the Survival in the data set on Mus musculus [19] came to 14.9 days.

The values are drawn from ChEMBL document CHEMBL3991949, “Inhibition of DCPS” (2009).
